US20130123282A1, “SOLID STATE FORMS OF LINAGLIPTIN” (priority 2011, published 2013)

Tests used:
Format in all cases: physicochemical
[1] = Polymorphic stability on storage under different relative humidity levels (XRD)
Excerpt: In addition to the properties mentioned above, Form XXII is particularly important as it can be obtained and exist at ambient conditions as single, pure phase. […] is also particularly advantageous, for example, in being non-hygroscopic and polymorphic stable under different relative humidity levels.
(§1) In addition to the properties mentioned above, Form XXII is particularly important as it can be obtained and exist at ambient conditions as single, pure phase. […] Form XXII is also non-hygroscopic and polymorphic stable under different relative humidity levels.
The XRD analyses were performed on ARL (SCINTAG) powder X-Ray diffractometer model X′TRA equipped with a solid state detector. Copper radiation of 1.5418 Å was used. Scanning parameters: range: 2-40 degrees two-theta; scan mode: continuous scan; step size: 0.05°, and a rate of 3 deg/min. The position of the silicon (111) peak was corrected to be 28.45 degrees two theta. The positions of the XRD peaks for the Linagliptin forms were corrected respectively. […]

[2] = Polymorphic stability when slurried in solvents; conditions: slurrying in different solvents, such as acetonitrile and ethanol
Excerpt: as §1

[3] = Hygroscopicity according to Ph.Eur. chapter 5.11; conditions: non-hygroscopic = less than 0.2% (w/w) absorption of water, Ph.Eur. 5.11
Excerpt: As used herein, and unless stated otherwise, the term “non-hygroscopic” in relation to crystalline Linagliptin refers to less than 0.2% (w/w) absorption of water, for example atmospheric water, by the crystalline Linagliptin, as determined according to Ph.Eur. chapter 5.11 (“Hygroscopicity”)

| solid form found by XRD after exposure to humidity ([1]; exposed to 100% relative humidity for 7 days) | polymorphic transformation on slurrying [2] | hygroscopicity [3] | SMILES | polymorphic transformation on storage ([1]; stored for 7 days at room temperature under 0-80% relative humidity) | polymorphic transformation on storage ([1]; stored for 7 days at room temperature under 0-100% relative humidity) |
| --- | --- | --- | --- | --- | --- |
| Linagliptin form XII | – | – | CC#CCn1c(N2CCC[C@@H](N)C2)nc2c1c(=O)n(Cc1nc(C)c3ccccc3n1)c(=O)n2C [Form X, Linagliptin] | no polymorphic transformation is observed | – |
| – | do not transform to other forms | non-hygroscopic | CC#CCn1c(N2CCC[C@@H](N)C2)nc2c1c(=O)n(Cc1nc(C)c3ccccc3n1)c(=O)n2C [Form XXII, Linagliptin] | – | no polymorphic transformation is observed |
